Earlier results on one compound are cited in PubChem BioAssay AID1259409 (Chemical Carcinogenesis Research Information System (CCRIS), 2018).

In this data set the test system is rodent chemically induced tumor inhibition, incidence and multiplicity. Put plainly: CCRIS tumor inhibitor studies.

Turning to `COc1ccc2c(c1)c(CC(=O)O)c(C)n2C(=O)c1ccc(Cl)cc1`, the “tumour outcome (control, treated, inhibition, significance)” value is given as 88%, 56%, 36%, p<0.005 (Carcinogen: 1,2-DIMETHYLHYDRAZINE DIHYDROCHLORIDE, 306-37-6, Dose [Inhibitor]: 20 MG/L TAP WATER DAILY FOR 32 WK STARTING SIMULTANEOUSLY WITH CARCINOGEN TREATMENT (STUDY DURATION: 32 WK), Route [Inhibitor]: ORAL, Species: RAT, Strain/Sex: SPRAGUE-DAWLEY/MALE, Target Tissue: Type of Lesion: LARGE INTESTINE: TUMOR, Dose [Carcinogen]: 20 MG/KG BW 1/WK FOR 20 WK, Promoter: NONE USED); 46%, 31%, 33%, not significant (Carcinogen: 1,2-DIMETHYLHYDRAZINE DIHYDROCHLORIDE, 306-37-6, Dose [Inhibitor]: 20 MG/L TAP WATER DAILY FOR 32 WK STARTING SIMULTANEOUSLY WITH CARCINOGEN TREATMENT (STUDY DURATION: 32 WK), Route [Inhibitor]: ORAL, Species: RAT, Strain/Sex: SPRAGUE-DAWLEY/MALE, Target Tissue: Type of Lesion: SMALL INTESTINE: TUMOR, Dose [Carcinogen]: 20 MG/KG BW 1/WK FOR 20 WK, Promoter: NONE USED); 9/10 (90%), 2/9 (22%), 76%, p 0.0019 (Carcinogen: 1,2-DIMETHYLHYDRAZINE, 540-73-8, Dose [Inhibitor]: 20 MG/L IN DRINKING WATER DAILY FOR 15 WK STARTING 34 D AFTER CARCINOGEN ADMINISTRATION (STUDY DURATION: 20 WK), Route [Inhibitor]: ORAL, Species: RAT, Strain/Sex: SPRAGUE-DAWLEY/MALE, Target Tissue: Type of Lesion: INTESTINE: TUMOR, Dose [Carcinogen]: 30 MG/KG BW ONCE, Promoter: NONE USED); 7/27 (26%), 0/14 (0%), 100%), p= 0.03 (Carcinogen: 1-HYDROXYANTHRAQUINONE, 129-43-1, Dose [Inhibitor]: 0, 16 PMM IN DRINKING WATER FOR 48 WK (STUDY DURATION: 48 WK), Route [Inhibitor]: ORAL, Species: RAT, Strain/Sex: ACI/MALE, Target Tissue: Type of Lesion: LARGE BOWEL: ADENOCARCINOMA, Dose [Carcinogen]: 1.5% IN DIET FOR 48 WK, Promoter: NONE USED); 3/27 (11%), 0/14 (0%), 100%, not calculated (Carcinogen: 1-HYDROXYANTHRAQUINONE, 129-43-1, Dose [Inhibitor]: 0, 16 PPM IN DRINKING WATER FOR 48 WK (STUDY DURATION: 48 WK), Route [Inhibitor]: ORAL, Species: RAT, Strain/Sex: ACI/MALE, Target Tissue: Type of Lesion: CECUM: ADENOCARCINOMA, Dose [Carcinogen]: 1.5% IN DIET FOR 48 WK, Promoter: NONE USED); 2/27 (7%), 0/14 (0%), 100%, not calculated (Carcinogen: 1-HYDROXYANTHRAQUINONE, 129-43-1, Dose [Inhibitor]: 0, 16 PPM IN DRINKING WATER FOR 48 WK (STUDY DURATION: 48 WK), Route [Inhibitor]: ORAL, Species: RAT, Strain/Sex: ACI/MALE, Target Tissue: Type of Lesion: CECUM: ADENOMA, Dose [Carcinogen]: 1.5% IN DIET FOR 48 WK, Promoter: NONE USED). The “tumour outcome (control, treated, inhibition, significance)” value is, setting by setting: (Carcinogen: 1-HYDROXYANTHRAQUINONE, 129-43-1, Dose [Inhibitor]: 0, 16 PPM IN DRINKING WATER FOR 48 WK (STUDY DURATION: 48 WK), Route [Inhibitor]: ORAL, Species: RAT, Strain/Sex: ACI/MALE, Target Tissue: Type of Lesion: COLON: ADENOCARCINOMA, Dose [Carcinogen]: 1.5% IN DIET FOR 48 WK, Promoter: NONE USED) 5/27 (19%), 0/14 (0%), 100%, not calculated; (Carcinogen: 1-HYDROXYANTHRAQUINONE, 129-43-1, Dose [Inhibitor]: 0, 16 PPM IN DRINKING WATER FOR 48 WK (STUDY DURATION: 48 WK), Route [Inhibitor]: ORAL, Species: RAT, Strain/Sex: ACI/MALE, Target Tissue: Type of Lesion: COLON: ADENOMA OR ADENOCARCINOMA, Dose [Carcinogen]: 1.5% IN DIET FOR 48 WK, Promoter: NONE USED) 9/27 (33%), 0/14 (0%), 100%, p<0.01; (Carcinogen: 1-HYDROXYANTHRAQUINONE, 129-43-1, Dose [Inhibitor]: 0, 16 PPM IN DRINKING WATER FOR 48 WK (STUDY DURATION: 48 WK), Route [Inhibitor]: ORAL, Species: RAT, Strain/Sex: ACI/MALE, Target Tissue: Type of Lesion: COLON: ADENOMA, Dose [Carcinogen]: 1.5% IN DIET FOR 48 WK, Promoter: NONE USED) 4/27 (15%), 0/14 (0%), 100%, not calculated; (Carcinogen: 1-HYDROXYANTHRAQUINONE, 129-43-1, Dose [Inhibitor]: 0, 16 PPM IN DRINKING WATER FOR 48 WK (STUDY DURATION: 48 WK), Route [Inhibitor]: ORAL, Species: RAT, Strain/Sex: ACI/MALE, Target Tissue: Type of Lesion: FORESTOMACH: TUMOR, Dose [Carcinogen]: 1.5% IN DIET FOR 48 WK, Promoter: NONE USED) 14/27 (52%), 2/14 (14%), 73%, p<0.01; (Carcinogen: 1-HYDROXYANTHRAQUINONE, 129-43-1, Dose [Inhibitor]: 0, 16 PPM IN DRINKING WATER FOR 48 WK (STUDY DURATION: 48 WK), Route [Inhibitor]: ORAL, Species: RAT, Strain/Sex: ACI/MALE, Target Tissue: Type of Lesion: LARGE BOWEL: ADENOMA, Dose [Carcinogen]: 1.5% IN DIET FOR 48 WK, Promoter: NONE USED) 5/27 (19%), 0/14 (0%), 100%, not calculated; (Carcinogen: 1-HYDROXYANTHRAQUINONE, 129-43-1, Dose [Inhibitor]: 0, 16 PPM IN DRINKING WATER FOR 48 WK (STUDY DURATION: 48 WK), Route [Inhibitor]: ORAL, Species: RAT, Strain/Sex: ACI/MALE, Target Tissue: Type of Lesion: LARGE BOWEL: TUMOR, Dose [Carcinogen]: 1.5% IN DIET FOR 48 WK, Promoter: NONE USED) 12/27 (44%), 0/14 (0%), 100%, not calculated. The “tumour outcome (control, treated, inhibition, significance)” value runs as follows: (Carcinogen: 1-HYDROXYANTHRAQUINONE, 129-43-1, Dose [Inhibitor]: 0, 16 PPM IN DRINKING WATER FOR 48 WK (STUDY DURATION: 48 WK), Route [Inhibitor]: ORAL, Species: RAT, Strain/Sex: ACI/MALE, Target Tissue: Type of Lesion: LIVER: NEOPLASTIC NODULE, Dose [Carcinogen]: 1.5% IN DIET FOR 48 WK, Promoter: NONE USED) 1/27 (4%), 0/14 (0%), 100%, not calculated; (Carcinogen: 1-HYDROXYANTHRAQUINONE, 129-43-1, Dose [Inhibitor]: 0, 16 PPM IN DRINKING WATER FOR 48 WK (STUDY DURATION: 48 WK), Route [Inhibitor]: ORAL, Species: RAT, Strain/Sex: ACI/MALE, Target Tissue: Type of Lesion: LIVER: TUMOR, Dose [Carcinogen]: 1.5% IN DIET FOR 48 WK, Promoter: NONE USED) 1/27 (4%), 0/14 (0%), 100%, not calculated; (Carcinogen: 2-ACETYLAMINOFLUORENE, 53-96-3, Dose [Inhibitor]: 0, 10 PPM IN DRINKING WATER FOR 18 WK BEGINNING 1 WK PRIOR TO CARCINOGEN TREATMENT (STUDY DURATION: 36 WK), Route [Inhibitor]: ORAL, Species: RAT, Strain/Sex: ACI/N/MALE, Target Tissue: Type of Lesion: LIVER: TUMOR, Dose [Carcinogen]: 200 PPM IN DIET FOR 16 WK, Promoter: NONE USED) 10/10 (100%), 1/10 (10%), 90%, p=0.00006. Further, the outcome by setting is: (Carcinogen: 1-HYDROXYANTHRAQUINONE, 129-43-1, Dose [Inhibitor]: 0, 16 PPM IN DRINKING WATER FOR 48 WK (STUDY DURATION: 48 WK), Route [Inhibitor]: ORAL, Species: RAT, Strain/Sex: ACI/MALE, Target Tissue: Type of Lesion: FORESTOMACH: PAPILLOMA, Dose [Carcinogen]: 1.5% IN DIET FOR 48 WK, Promoter: NONE USED) 14/27 (52%), 2/14 (14%), p= 0.01; (Carcinogen: 4-HYDROXYBUTYL(BUTYL)NITROSAMINE [3817-11-6], Dose [Inhibitor]: 20 MG/KG IN DIET 1 WK AFTER CARCINOGEN (STUDY DURATION: 32 WK), Route [Inhibitor]: DIET, Species: MOUSE, Strain/Sex: B6D2F1/MALE, Target Tissue: Type of Lesion: BLADDER: CARCINOMA, Dose [Carcinogen]: 7.5 MG/WK FOR 12 WK) 32, 6, 81%; (Carcinogen: 4-HYDROXYBUTYL(BUTYL)NITROSAMINE [3817-11-6], Dose [Inhibitor]: 20 MG/KG IN DIET 1 WK AFTER LAST CARCINOGEN DOSE (STUDY DURATION: 61 WK), Route [Inhibitor]: DIET, Species: MOUSE, Strain/Sex: B6D2F1/MALE, Target Tissue: Type of Lesion: BLADDER: CARCINOMA, Dose [Carcinogen]: 7.5 MG/WK FOR 12 WK) 66, 26, 61%; (Carcinogen: 4-HYDROXYBUTYL(BUTYL)NITROSAMINE [3817-11-6], Dose [Inhibitor]: 20 MG/KG IN DIET 1 WK AFTER LAST CARCINOGEN DOSE FOR 12 WK (STUDY DURATION: 42 WK), Route [Inhibitor]: DIET, Species: MOUSE, Strain/Sex: B6D2F1/MALE, Target Tissue: Type of Lesion: BLADDER: CARCINOMA, Dose [Carcinogen]: 7.5 MG/WK FOR 12 WK) 31, 16, 48%.
